The source of these data is patent US20260174762A1, “OLCEGEPANT FOR TREATING SEPSIS” (Boehringer Ingelheim International GmbH, priority 2022, published 2026).

For one experiment, the system named is mouse CLP model. The conditions noted are these: WO 2018/154015, cited from earlier work.
The test system of experiment [1] is CLP-induced polymicrobial sepsis. The experiment can be described thus: Chronic model of CLP: survival rate. It counts as in vivo, mouse. The note with it: 30 mg/kg s.c. 2 h after CLP induction and once daily from day 1 to day 6; 10 mice per group. How it is done:
Two models were performed: • A cute model of CLP lasting 24 h to measure vascular hyper-permeability in lung, liver, kidney and heart tissue. The vascular hyper-permeability was followed by the extravasation of Evans blue injected intravenously and diffused and accumulated into the tissue. The vascular hyper-permeability was expressed as μg of Evans blue in 100 mg of dry tissue. • Chronic model of CLP lasting 8 days. CLP is performed on day 0 and the survival rate is followed for 8 consecutive days
On day 0, mice were anesthetized with ketamine (80 mg kg^−1, i.p.) and xylazine (10 mg kg^−1, i.p.). A 1-1.5 cm abdominal midline incision was made, and the caecum was located and tightly ligated at half the distance between distal pole and the base of the caecum with 4-0 silk suture (mild grade). The caecum was punctured through-and-through once with a 21-gauge needle after medium ligation. A small amount of stool was extruded to ensure that the wounds were patent. Then the cecum was replaced in its original position within the abdomen, which was closed with sutures in layers. For negative control animals, a sham surgery was performed: sham-operated animals underwent identical laparotomy but without cecal ligation or puncture. The animals were resuscitated immediately after surgery with 1 mL subcutaneous normal saline and returned to their cages. […]

For the next experiment, the system named is pig sepsis model. The note with it: intravenous bolus injection; cited from earlier work.

Molecules are shown by their SMILES.

On to `NCCCC[C@H](NC(=O)[C@@H](Cc1cc(Br)c(O)c(Br)c1)NC(=O)N1CCC(N2Cc3ccccc3NC2=O)CC1)C(=O)N1CCN(c2ccncc2)CC1` [olcegepant], for which, in the experiment with mouse CLP model (100 mg/kg subcutaneous twice daily, mouse CLP model), the “mice rescued at day 4” value is listed as 20%. Besides, the mice rescued with mouse CLP model (subcutaneous bolus injection, mouse sepsis model) is recorded as 2 out of 10. For the same molecule, the “survival rate at day 8” value in experiment [1] was determined as 20%. Moreover, in the experiment on pig sepsis model, the survival improvement result was “did not show any survival improvement”.
